From publication PMC7805210, “Study on suitable analysis method for HIV-1 non-catalytic integrase inhibitor” (Virology Journal, 2021)
Each block holds one compound with its values, some of them ahead of it.

Experiments:
HIV-1 integrase [1] = biological target: T1, HIV-1 integrase (Human immunodeficiency virus type 1 group M subtype B, UniProt P04585); experiment: 3'-processing inhibition assay (modified strand transfer assay, inhibitor pre-incubated with IN); format: biochemical; conditions: 20 nM IN pre-incubated 30 min
T1 construct: 100 μl IN enzyme solution was added to each well; purchased XpressBio, Frederick, MD
Protocol: To confirm the 3′-processing inhibition activity NCINI, the strand transfer inhibition assay was modified. The plate coating process with DS DNA was conducted in a similar manner. […] Reaction of integrase first with the drug before its reaction with DS DNA is a necessary step to validate the 3′-processing inhibitory activity of the compound. The integrase-inhibitor mixture was added to LTR DS DNA-conjugated 96-well plates. Subsequent steps were conducted in a similar manner as the strand transfer assay.
The subsequent steps were the same as the strand transfer assay protocol (Fig. 4a).
The 3′-processing inhibition assay was performed by modifying the protocol of the strand transfer assay. […] Before addition of LTR dsDNA, fivefold serially diluted integrase inhibitors were incubated with 20 nM integrase for 30 min. The integrase-inhibitor mixtures were treated with LTR dsDNA-conjugated 96-well plates. After incubation, target DNA was added to each well for the strand transfer reaction and the products detected colorimetrically using a HRP-labeled antibody against 3′-modified target DNA. "No integrase" and "integrase-only" wells were set as the negative and positive control, respectively

[2] = Cell cytotoxicity by WST method (EZ-Cytox) in MT2 cells; format: cell-based; conditions: human, 5 days incubation
Protocol: (§1) To determine the cytotoxicity of anti-HIV drugs, cell viability was assessed via the water-soluble tetrazolium salt (WST) method using an EZ-Cytox kit (Daeil Lab Service, Seoul, Korea) according to the manufacturer’s instructions. […] Cells were treated with serial dilutions of each drug ([…] dilutions from 50,000 to 2.54 nM). On days 2 and 5 of incubation, 10 μl EZ-Cytox solution was added to each well and incubated for 2 h, followed by spectrophotometric measurement of absorbance at 540 nm.

HIV-1 AD8 strain [3] = experiment: p24 ELISA antiviral activity in infected MT2 cells; conditions: for EC50: Human immunodeficiency virus 1, MT2, 120 h; for SI value (CC50/EC50): MT2 cell system
Protocol: ELISA was conducted to detect HIV-1 p24 for assessment of antiviral activity using a HIV-1 p24 ELISA kit (XpressBio, Frederick, MD). To this end, MT2 cells seeded on a 96-well cell culture plate at a density of a 1 × 10^4 cells/well were infected with 500 TCID50 of HIV-1 AD8 strain. Each drug was serially diluted threefold (from 10,000 to 0.51 nM) for treatment of cells. After five days of culture at 37 °C with 5% CO2, 100 μl of culture medium was harvested and supernatant obtained by centrifugation for 5 min at 5000 rpm (8400 rcf), with storage at − 80 °C. Cell culture media of non-infected and infected cells without INI treatment were set as the negative and positive control, respectively. The ELISA procedure was conducted according to the manufacturer’s instructions. Briefly, samples were mixed with 20 μl lysis buffer, 200 μl aliquots pipetted into a microplate, and incubated for 1 h at 37 °C. After incubation, the contents of the wells were aspirated and microtitration plates washed six times with 350 μl wash buffer. Each well was treated with 100 μl detection antibody for 1 h at 37 °C, which was subsequently removed by washing under the same conditions. An aliquot (100 μl) of streptavidin-HRP conjugate was added into each well, followed by incubation at room temperature for 30 min. After washing under the same conditions, 100 μl substrate solution was immediately dispensed into each well and incubated for 30 min at room temperature with protection from direct sunlight. For termination of the reaction, 100 μl stop solution was added to each well and absorbance values at 450 nm immediately read using a microplate reader.
MT2 cells infected with 500 TCID50 of HIV-1 AD8 strain were treated with a range of concentrations of each drug. At 5 days post-infection, cell culture media were harvested for p24 ELISA. Media of non-infected and infected cells without HIV drug treatment were set as the negative or positive control, respectively.

[4] = Cell cytotoxicity by WST method (EZ-Cytox) in TZM-bl cells; format: cell-based; conditions: human, 2 days incubation
Protocol: as §1

[5] = biological target: integrase strand transfer; conditions: does not inhibit strand transfer; cited from earlier work
HIV-1 integrase [6] = biological target: T1, HIV-1 integrase; experiment: Strand transfer inhibition assay (HIV-1 integrase assay kit); format: biochemical; conditions: read-out: strand transfer inhibitory activity
Protocol: The strand transfer assay was performed using the HIV-1 integrase assay kit (XpressBio, Frederick, MD) according to the manufacturer’s instructions. Briefly, 100 μl of 1X donor substrate DNA (DS DNA) solution was added to each well and incubated for 30 min at 37 °C. The liquid was aspirated from the wells and washed 5 times with 300 μl wash buffer, followed by incubation with 200 μl blocking buffer per well for 30 min at 37 °C. Following aspiration of the liquid, wells were washed three times with 200 μl reaction buffer. Next, 100 μl IN enzyme solution was added to each well and incubated under similar conditions followed by removal of liquid and three washes with 200 μl reaction buffer. Each test sample was fivefold serially diluted (from 1000 to 8 μM) in reaction buffer and 50 μl aliquots added per well. After 5 min incubation at room temperature, 50 μl 1X target substrate DNA (TS DNA) solution was directly added to the 50 μl test sample within the wells. Reactions were mixed by tapping the plate gently 3–5 times and incubating for 30 min at 37 °C, washed 5 times with 300 μl wash solution and incubated with 100 μl HRP antibody for 30 min at 37 °C. After washing the plate under the same conditions, 100 μl TMB peroxidase substrate solution was added per well and incubated for 10 min at room temperature. To terminate the reaction, 100 μl TMB stop solution was directly added to wells and absorbance read using a plate reader at 450 nm.
Fig.3 Strand transfer inhibition efficiency of catalytic and non-catalytic integrase inhibitors. a Schematic diagram of the strand transfer assay process. The yellow and blue boxes represent the response under conditions of no IN inhibitor or INSTI, respectively. b Integrase inhibitor compounds at a range of concentrations generated from fivefold serial dilutions were used to treat 3′-end cleaved LTR DS DNA by integrase. After incubation, TS DNA was added to each well for the strand transfer reaction. The reaction products were detected colorimetrically using a HRP-labeled antibody against modified target DNA. "No integrase" and "Integrase only" wells were set as the negative and positive control, respectively

HIV-1 AD8 strain [7] = experiment: Antiviral activity test using the TZM-bl cell luciferase system; conditions: for EC50: Human immunodeficiency virus 1, TZM-bl, 48 h
Protocol: TZM-bl cells were seeded on 96-well cell culture plates at a density of 1 × 10^4 cells/well and cultured overnight. Each drug was twofold serially diluted from 10,000 to 0.15 nM and treated to cells. After a 30 min incubation period, viral infection was performed with 500 TCID50 of HIV-1 AD8. Cells were cultured for 48 h after infection and luciferase activity measured using Beetle-Lysis Juice (PJK GmbH, Kleinblittersdorf, Germany) according to the manufacturer’s instructions. Briefly, the medium was removed, and cells washed three times with 200 μl PBS. Next, 100 μl Beetle-Lysis Juice containing luciferin and ATP were added to each well and incubated for 5 min with protection from sunlight. Subsequently, luciferase activity was measured using a micro beta counter (PerkinElmer, Waltham, MA) after transferring solutions to a white 96-well plate. Anti-HIV efficacy of drugs was determined based on reduced expression of luciferase relative to the virus-only treatment group.
Fig.1 Determination of antiviral activities of integrase inhibitors in the TZM-bl cell line system. Integrase inhibitors were serially diluted and incubated with 1 × 10^4 TZM-bl cells per well during 30 min, followed by infection with 500 TCID50 of HIV-1 AD8 strain. For determination of antiviral efficacy, luciferase activity was measured after 48 h of incubation. Cell culture media of non-infected and infected cells without HIV drug treatment were set as the negative and positive control, respectively.

[8] = test system: HxB2, NL4.3 and a recombinant NL4.3 strain; conditions: against HxB2, NL4.3 and a recombinant NL4.3 strain; cited from earlier work

SMILES: Cc1nc2ccccc2c(-c2ccc3c4c(ccnc24)CCO3)c1[C@H](OC(C)(C)C)C(=O)O [BI 224436]
IN inhibition activity (3'-processing, modified protocol) (HIV-1 integrase [1]; at 3.2 μM): 80.65% | IN inhibition activity (3'-processing, modified protocol) (HIV-1 integrase [1]; at 2000 μM): 87.14% | CC50 at 5 days [2]: > 50 µM | EC50 (HIV-1 AD8 strain [3]): 0.0287 µM | CC50 at 2 days [4]: > 50 µM | EC50 [5]: > 50 µM | inhibition at 8 µM (HIV-1 integrase [6]): 20% | inhibition at 1000 µM (HIV-1 integrase [6]; at 1000 μM): 36% | EC50 (HIV-1 AD8 strain [7]): 0.566 µM | EC50 [8]: 0.011 to 0.027 µM

SMILES: C[C@@H]1CCO[C@H]2Cn3cc(C(=O)NCc4ccc(F)cc4F)c(=O)c(O)c3C(=O)N12 [DTG, Dolutegravir]
CC50 at 5 days [2]: 1.74 µM | EC50 (HIV-1 AD8 strain [3]): < 0.00051 µM | SI value (CC50/EC50) (HIV-1 AD8 strain [3]): > 3413.60 | CC50 at 2 days [4]: > 50 µM | inhibition at 8 µM (HIV-1 integrase [6]): > 50% | EC50 (HIV-1 AD8 strain [7]): 0.0016 µM

EC50 (HIV-1 AD8 strain [3]): < 0.00051 µM | EC50 (HIV-1 AD8 strain [7]): < 0.00015 µM
SMILES: COc1cc2c(cc1Cc1cccc(Cl)c1F)c(=O)c(C(=O)O)cn2[C@H](CO)C(C)C [EVG, Elvitegravir]
CC50 at 5 days [2]: 1.26 µM | CC50 at 2 days [4]: 26 µM

SMILES: Cc1nnc(C(=O)NC(C)(C)c2nc(C(=O)NCc3ccc(F)cc3)c(O)c(=O)n2C)o1 [RAL, Raltegravir]
CC50 at 5 days [2]: 6.42 µM | EC50 (HIV-1 AD8 strain [3]): 0.00058 µM | SI value (CC50/EC50) (HIV-1 AD8 strain [3]): 11,075.19 | CC50 at 2 days [4]: > 50 µM | inhibition at 8 µM (HIV-1 integrase [6]): > 50% | EC50 (HIV-1 AD8 strain [7]): 0.0104 µM | SI value (CC50/EC50) (HIV-1 AD8 strain [7]; TZM-bl cell system): > 4816.96
